Test results taken from a melting point compilation (Tetko et al.; mined from patent text by program, amines drawn as free bases though some values may be those of a salt).

SMILES	melting point [°C]
COc1ccc(N2C(=S)N(c3ccc(Oc4ccccc4)cc3)C(=O)C2C)cc1 (centres undefined)	208 to 210
Cn1cc(-c2ccccc2)c(=O)c(-c2cccc(-c3ccccc3)c2)c1	186 to 190
C#CCCC(O)=C(C#N)C(=O)Nc1ccc(C(F)(F)F)cc1	172
N#CSCCNc1ccc(C(F)(F)F)cc1[N+](=O)[O-]	115 to 117
CCC1=C(c2cccc(F)c2)C(=O)N(c2cccc(C(F)(F)F)c2)C1	77.5 to 79
Cc1c(C#N)sc2nc(-c3ccccc3)nc(N3CCN(C)CC3)c12	223 to 225
COc1ccc(OC(CCCN(C)C2C3CCC2CNC3)c2ccc(C#N)cc2)cc1OC (centres undefined)	47 to 53
CN1CNC(=O)NC1=O	252 to 254
CCCCCCCCCCCCCCCCCC[PH](=O)C(OCC)OCC (centres undefined)	54 to 58
CC[C@H](NS(=O)(=O)c1ccc(OC)cc1)C(=O)OC	64
CCOC(=O)Cc1ccc(-c2nc(COc3ccc(COc4nn(-c5ccccc5)cc4/C=C/c4nc(CC)sc4C)cc3OC)c(C)o2)cc1	127 to 128
CCCCCCC(=O)Oc1cc(-c2nc3ccccc3[nH]c2=O)cc([N+](=O)[O-])c1OC(=O)CCCCCC	186 to 188
COc1ccc(-c2ccc(C(=O)Nc3cc4ncc(CN5CCCC5)cc4cc3F)cc2)cc1	184 to 186
COC(=O)C=C1NC(C)(CO)COC1=O (centres undefined)	62 to 63
CNC(=O)NN=Cc1ncc([N+](=O)[O-])n1C	221 to 223
COc1ccc(-n2c(=O)c(C(=O)O)nc3c(Cl)cccc32)cc1	198 to 200
Cc1cccc(-n2nc(C)cc2-c2ccnc(C#N)c2)c1	128 to 130
Cc1cc(C)cc(C(=O)N2CCN(C(=O)CCNC3CCN(Cc4ccccc4)CC3)C(c3ccc(Cl)c(Cl)c3)C2)c1 (centres undefined)	51 to 54
CCCCCCCCCCCCCCCCCCCCOC(=O)P(=O)(O)O	87 to 89
O=c1c2cn[nH]c2nc2n1CCS2	> 300
Nc1ncnc2c1ncn2CCO	236

SMILES	melting point [°C]
Cc1cc(-c2nc3cccnn3c2-c2ccnc(NC(N)=O)c2)ccc1F	254 to 255
COc1c(C2CCN(CCCCNC(=O)c3oc(-c4ccc(C#N)cc4)nc3CO)CC2)ccc2c1CCCC2	160 to 162
C=CCc1cccc2c(=O)c(C)c(C=Cc3ccccc3)oc12	126
Cc1ccccc1OCC1COC(Cn2ccnc2)(c2ccc(Cl)cc2Cl)O1 (centres undefined)	138
C#CCN1CCN(C2=Nc3cc(Cl)ccc3Nc3ccccc32)CC1	138 to 140
COc1cc2c(cc1OC)C(c1c[nH]cn1)CCC2 (centres undefined)	140
CCC(CC)OC(=O)c1ccc(C(=O)NS(=O)(=O)c2ccccc2)cn1	182 to 183
Cc1ccc(CN2CCN(C3=NC4(C=CC(=O)C(Cl)=C4)C(c4ccccc4)=C3)CC2)cc1 (centres undefined)	161
CC(O)=C(C#N)CC(=O)Nc1ccc(NC(=O)CBr)cc1	> 210
CN(C)CCNC(=O)Cc1ccc2ccn(C3CCN(CCc4ccc(F)cc4)CC3)c2c1	112 to 113
O=C(NC(=O)c1c(F)cccc1F)Nc1ccc(-c2ccc(Cl)cc2)cn1	229 to 234
CCc1csc(-c2ccc(OCCC3CCN(c4ccc(C)nn4)CC3)cc2)n1	113
N=C(Nc1ccc(CN(Cc2ccccc2)Cc2ccccc2)cc1)c1cccs1	127 to 128
O=c1nccc2sc3cc(-c4ccccc4)ccc3n12	196 to 197
CCCc1ccc(OCc2ccc(OCc3nc(-c4ccccc4)oc3C)cc2)cc1OCC(=O)OC	100 to 101
CCCc1c(C(=O)NCc2ccc3c(Br)c(OCC(=O)O)ccc3c2)cnn1-c1ccccc1	140 to 145
CCOC(=O)C(C)NNc1cc(F)cc(F)c1 (centres undefined)	139 to 141
CS(=O)(=O)c1ccc(-c2oc(CC(=O)O)nc2-c2ccc(F)cc2)cc1	118 to 120
O=C(Cl)ON1C(=O)c2ccccc2C1=O	113 to 115
CCOC(=O)C(=O)c1ccc(OCCOc2ccc3ccccc3c2)s1	98 to 100
Cc1ccc(-c2c(C#N)n(C)c(=O)c3ncccc23)cc1	268 to 270

SMILES	melting point [°C]
NC(=NCC(F)(F)F)Nc1nc(CCCCNc2nc3ccccc3[nH]2)cs1	183 to 186
CC(C)n1nc(-c2cnc(N)nc2-c2ccccc2Br)ccc1=O	203 to 205
O=C(N[C@H]1CCN(CCc2ccc(F)cc2)C1)C1=c2ccccc2=CC=C2CC=CC=C21	127 to 128
CCOC(=O)c1cnc2c(F)c(F)c(F)cc2c1Cl	110 to 112
Nc1cc(SCc2ccccc2)ccc1[N+](=O)[O-]	113 to 115
O=C(Cc1csc(Nc2ccccc2)n1)NC1CCN(Cc2ccc(Cl)c(Cl)c2)CC1	191 to 192
O=Cc1c(Cl)ccc(F)c1Cl	63 to 65
Cc1oc(-c2ccccc2)nc1C(O)COc1ccc(CC2SC(=O)NC2=O)nc1 (centres undefined)	55 to 72
COc1cc2c(cc1OC)CN(CCCSc1ccc(NC(=O)c3cccc4c(=O)c5ccccc5[nH]c34)cc1)CC2	182
C=CCN(C(C)=O)c1cccc(-c2ccc3nncn3n2)c1	139 to 142
Nc1ccc(S(=O)(=O)Nc2nnc(S(N)(=O)=O)s2)cc1	241 to 242
O=C1c2cccc(-c3ccccc3)c2C2NCCN12 (centres undefined)	155 to 157
CCNC1N=CN(c2ccccc2C)C(=O)N1 (centres undefined)	208 to 210
OC1(OCc2ccccc2)C(Cl)=C(Cl)C=CC1OCc1ccccc1 (centres undefined)	74 to 75
CN(C)CCCNCC(O)C(O)C(O)C(O)CO (centres undefined)	107 to 108
CCCCCCCCCCCCCCCC1CN(C(=O)c2cc(OC)c(OC)c(OC)c2)CCN1C(=O)c1cc(OC)c(OC)c(OC)c1 (centres undefined)	68
O=S(=O)(CC(F)(F)F)Nc1ccc(N2CCN(c3ccc(OCC(O)(Cn4cncn4)c4ccc(Cl)cc4Cl)cc3)CC2)cc1 (centres undefined)	74 to 75
CCOc1cc(Cc2cnc(N)nc2N)cc2c1OC(C)(C)C=C2c1ccncc1	223 to 226
FC(F)c1nc2ccccc2n1-c1nc(Nc2ccccc2)nc(N2CCOCC2)n1	171 to 174
CC(C)COC(=O)Oc1ccc(S(=O)(=O)c2ccc(S(N)(=O)=O)s2)cc1	111 to 112
Oc1ccc(Sc2cccc(F)n2)cc1	123 to 124

The next lines start with the values.

melting point [°C]	SMILES
104 to 106	Cc1cc(CSCCNC(=C[N+](=O)[O-])NCC(O)c2cccc(Br)c2)sc1CN(C)C (centres undefined)
137 to 139	COc1cc(N(C)C)ccc1C=Nc1cc(Cl)c(N=CN(C)C)c(Cl)c1
102 to 103	COc1cc(C(=O)CCl)ccc1O
173 to 174	CCCn1c(COC)nc2c(N)nc3ccc(OCCCOC(=O)N4CCOCC4)cc3c21
155 to 156	Cc1cn(C)c2c1C(=O)CC(c1ccccc1)C2 (centres undefined)
125 to 127	CC(C)(C)OC(=O)N1CCC(c2c(F)cc(N3C[C@H](CN=[N+]=[N-])OC3=O)cc2F)CC1
89 to 90	CC(C)(C)c1cc(Br)c(C(C)(C)C)cc1N
193 to 194	CN(c1cccc2cc(C3=NCC(CC(N)=O)S3)[nH]c12)S(=O)(=O)c1cccs1 (centres undefined)
60 to 62	CCON=C(CC)C1=C(OC(=O)c2ccc(Cl)cc2)CC(C)(C)CC1=O
118 to 120	CC(C)(COC(=O)CCC(=O)O)Oc1ccc2c(c1)CCc1c-2ccc2c1CCC2(C)C
50 to 52	CC1(OCc2ccccc2F)COC(C(C)(C)C)OC1 (centres undefined)
224 to 225	NC(=O)c1n[nH]c2c(=O)[nH]c3cc(Cl)ccc3c(=O)c12
230 to 231	Cc1nc2ccccc2n(-c2ccc(N(C)C)cc2)c1=O
120 to 135	Cc1oc2ccccc2c(=O)c1C(=O)O
104 to 108	O=CNC1CCCc2sc(Br)cc21 (centres undefined)
113	CC(C)(C)c1cc2c(c(C(C)(C)C)c1O)CCO2
141 to 142	CCCS(=O)(=O)c1sc(C(N)=O)c2c1-c1c(cnn1CC(F)(F)F)CC2
262 to 265	CCOC(=O)c1cn2c3c(cc(F)cc3c1=O)C(=O)CC2C (centres undefined)

melting point [°C]	SMILES
71.5 to 72	CCOC(=O)CNC(=O)C(CCl)NC(=O)OC(C)(C)C (centres undefined)
136 to 137	CCOC(=O)CC(=O)c1cc(O)c(O)c([N+](=O)[O-])c1
194 to 195	CCCn1c(=O)c2[nH]c(C(C)(C)C)nc2n(CCNC(C)=O)c1=O
86 to 88	N#Cc1cc(I)c(N)c(C(F)(F)F)c1
209 to 211	CCCNC(=O)N(C)C1CCN(c2ncnc3cc(OC)c(OC)cc23)CC1
172 to 174	Cc1c(C)c2c(c(C)c1O)CCC(C)(C(=S)Nc1cc(C(C)(C)C)c(O)c(C(C)(C)C)c1)O2 (centres undefined)
162 to 165	Cc1cc(NCCNC(=O)CCc2cc(C(C)(C)C)c(O)c(C(C)(C)C)c2)nc(Cl)c1C#N
142 to 144	CC(=O)c1cc(CS(C)(=O)=O)ccc1O
174 to 176	CCc1cc(C2(c3cccc(-c4cccnc4F)c3)N=C(N)N3CCCN=C32)cc(CC)n1 (centres undefined)
145 to 147	CN(C)C(=O)Nc1ccc(CN2OCC(C)(C)C2=O)c(Cl)c1
126 to 128	CCCCc1nc2cccc(C(=O)OCOC(=O)C(C)(C)C)c2n1Cc1ccc2nc(-c3ccccc3-c3nnn[nH]3)ncc2c1
115 to 116	CCOC(=O)c1ccc2[nH]c([Si](C)(C)C)c(CCCO[Si](C)(C)C(C)(C)C)c2c1
93 to 95	COC[C@@H](C)n1cc(Cl)nc(N2CCc3cc(Cl)cc(Cl)c32)c1=O
102 to 105	O=[N+]([O-])c1cc(Br)cc(O)c1O
55 to 58	CCN(C(=O)OC(C)(C)C)c1cn(-c2cccnc2)nc1Cl
147 to 148	CC(C)(C)c1ccc(NC(=O)Nc2cccc(C(=O)O)c2)cc1
105 to 109	COc1cc(C(=O)NS(=O)(=O)c2ccccc2C)ccc1Cn1cc(CCC(=O)N(C)C)c2ccc(CCC(=O)N(C)C)cc21
180	CC1SC(=O)NN=C1c1ccc2c(c1)CCCN2C(=O)c1ccc2c(c1)OCO2 (single isomer, unassigned; (-))
